Consider twelve molecules from PubChem BioAssay (NCI).

Some test systems named below: SNB-75 CNS; BT-549 breast; OVCAR-4 ovarian; K-562 leukemia; MCF7 breast; SK-MEL-28 melanoma; DU-145 prostate; SF-539 CNS; HCC-2998 colon; SK-MEL-2 melanoma.
What all share (assay): NCI tumour cell line growth inhibition, 48 h

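Following 48 hours of exposure in 96-well plates, responses at five concentrations were used to interpolate endpoints linearly. Abbreviation: GI50, concentration required for 50% inhibition of growth. The concentration for full growth arrest is given as TGI.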 Some results are limits rather than exact numbers.

For `N#Cc1c2ccccc2c2nnc3ccccc3n12`, the GI50 in the assay on SNB-75 CNS is 28.3 µM; in the assay with BT-549 breast, 12 µM; in the assay on OVCAR-4 ovarian, above 100 µM; in the assay with K-562 leukemia, 81.9 µM; in the assay with MCF7 breast, 14.2 µM; in the assay with SK-MEL-28 melanoma, 78.6 µM. The GI50 in the assay with DU-145 prostate is 26.8 µM. Further, the TGI is above 100 µM with SNB-75 CNS; 45.1 µM in the assay on BT-549 breast; above 100 µM with OVCAR-4 ovarian; above 100 µM in the assay on K-562 leukemia; 52.4 µM with MCF7 breast; above 100 µM in the assay on SK-MEL-28 melanoma. Besides, the TGI with DU-145 prostate was above 100 µM.

For the molecule `CCN1C(=O)N(CC)C2C1NC(=S)N2/N=C/C=C/c1ccccc1OC` (stereo not drawn), the GI50 with SNB-75 CNS was 0.0389 µM; in the assay with SF-539 CNS, 0.0228 µM; in the assay on BT-549 breast it was 0.0258 µM; in the assay on OVCAR-4 ovarian, 0.125 µM; in the assay on K-562 leukemia it was 0.0276 µM; with HCC-2998 colon, 0.0343 µM. Besides, the figures for the GI50 in the assay with MCF7 breast, in the assay with SK-MEL-28 melanoma and with SK-MEL-2 melanoma were 0.0406 µM, 16.1 µM and 1.1 µM, respectively. The TGI with SNB-75 CNS is above 100 µM; with SF-539 CNS it was 0.0771 µM; in the assay on BT-549 breast, 38.2 µM; with OVCAR-4 ovarian, above 100 µM; in the assay with K-562 leukemia, above 100 µM; in the assay with HCC-2998 colon, 16.2 µM. Besides, the TGI in the assay with MCF7 breast, with SK-MEL-28 melanoma and in the assay on SK-MEL-2 melanoma was above 100 µM in each case.

In the case of `CC1CCC2CC1NC(=O)CCOCCC(=O)NC2(C)C` (stereo not drawn), the TGI in the assay with SNB-75 CNS, in the assay with SF-539 CNS, with BT-549 breast, in the assay with OVCAR-4 ovarian, in the assay on K-562 leukemia and with HCC-2998 colon was above 100 µM in each case. In addition, the TGI with MCF7 breast, in the assay with SK-MEL-28 melanoma and with DU-145 prostate was above 100 µM throughout.

For `O=c1[nH]c2ccccc2n2cc3ccccc3c12`, the GI50 in the assay on SNB-75 CNS is 13.4 µM; in the assay with SF-539 CNS, 5.11 µM; in the assay on BT-549 breast, 18.9 µM; with OVCAR-4 ovarian it was 7.2 µM; with HCC-2998 colon, 5.84 µM; with MCF7 breast, 10.5 µM. Moreover, the figures for the GI50 in the assay on SK-MEL-28 melanoma, in the assay on SK-MEL-2 melanoma and in the assay on DU-145 prostate were 22.6 µM, 20.6 µM and 7.61 µM, respectively. In addition, the TGI in the assay on SNB-75 CNS is 74.4 µM; with SF-539 CNS, 22.2 µM; in the assay with BT-549 breast, 64.3 µM; in the assay with OVCAR-4 ovarian it was 89.7 µM; with HCC-2998 colon, 20.8 µM; with MCF7 breast, above 100 µM. Besides, the TGI in the assay with SK-MEL-28 melanoma is above 100 µM; in the assay on SK-MEL-2 melanoma it was 38.8 µM; in the assay on DU-145 prostate, 37.7 µM.

As for `O=c1nc(N2CCCC2)nc(N2CCCC2)s1`, the TGI with SNB-75 CNS, in the assay on SF-539 CNS, in the assay on OVCAR-4 ovarian, with K-562 leukemia, with HCC-2998 colon and in the assay with SK-MEL-28 melanoma was above 100 µM in each case. Also, the TGI in the assay with SK-MEL-2 melanoma was above 100 µM.

As for `O=C(CCN1CCC(CCO)CC1)Nc1ccc2c(c1)C(=O)c1ccc(NC(=O)CCN3CCC(CCO)CC3)cc1C2=O`, the TGI in the assay on SNB-75 CNS is 64.2 µM; with SF-539 CNS, 19.4 µM; with OVCAR-4 ovarian it was 63.2 µM; with K-562 leukemia it was 42.6 µM; with HCC-2998 colon, 88.7 µM; in the assay on SK-MEL-28 melanoma, above 100 µM. This molecule also had a TGI in the assay with SK-MEL-2 melanoma of 13.6 µM.

For the molecule `CCC(C)(C)[C@H](NC(=O)[C@H]1CCCCN1C)C(=O)N(C)[C@H](C[C@@H](OC(C)=O)c1nc(C(=O)N[C@@H](Cc2ccccc2)C[C@H](C)C(=O)O)cs1)C(C)C`, the GI50 was below 0.00167 µM in the assay with SNB-75 CNS; below 0.00167 µM in the assay on SF-539 CNS; below 0.00167 µM with BT-549 breast; 0.00798 µM in the assay on OVCAR-4 ovarian; below 0.00167 µM in the assay on K-562 leukemia; below 0.00167 µM in the assay with HCC-2998 colon. The GI50 in the assay with MCF7 breast, in the assay on SK-MEL-2 melanoma and in the assay on DU-145 prostate was below 0.00167 µM each time. Further, the TGI with SNB-75 CNS was above 16.7 µM; in the assay on SF-539 CNS, below 0.00167 µM; in the assay with BT-549 breast, 0.0136 µM; in the assay with OVCAR-4 ovarian it was above 16.7 µM; in the assay on K-562 leukemia, above 16.7 µM; in the assay on HCC-2998 colon, above 16.7 µM. Further, the TGI in the assay with MCF7 breast and in the assay on SK-MEL-2 melanoma was above 16.7 µM in each case.

In the case of `Cn1c2cc([N+](=O)[O-])ccc2c(=O)c2c(O)cc3c(c21)C=CC(C)(C)O3`, the TGI with SNB-75 CNS is 25.7 µM; in the assay on SF-539 CNS, 32.4 µM; in the assay on OVCAR-4 ovarian, above 100 µM; with K-562 leukemia it was above 100 µM; in the assay on HCC-2998 colon it was above 100 µM; in the assay with SK-MEL-28 melanoma, above 100 µM. Besides, the TGI in the assay on SK-MEL-2 melanoma is above 100 µM.

Consider `NC(CO)c1ccc(OCc2ccccc2)cc1` (stereo not drawn), for which the TGI is 98.9 µM in the assay with SNB-75 CNS; above 100 µM with SF-539 CNS; above 100 µM in the assay on OVCAR-4 ovarian; above 100 µM in the assay on K-562 leukemia; above 100 µM in the assay on HCC-2998 colon; above 100 µM with SK-MEL-28 melanoma. In the assay with SK-MEL-2 melanoma, this molecule displayed a TGI above 100 µM.

`CN(C)c1ccc(/C=c2\sc3nnc(-c4cccnc4)n3c2=O)cc1`: the TGI with SNB-75 CNS, with SF-539 CNS, with OVCAR-4 ovarian, with K-562 leukemia, with HCC-2998 colon and in the assay on SK-MEL-28 melanoma was above 100 µM each time. Further, the TGI in the assay with SK-MEL-2 melanoma was above 100 µM.

In the case of `CS(=N)(=O)CCC(N)P(=O)(O)O` (stereo not drawn), the TGI in the assay on SF-539 CNS, with BT-549 breast, in the assay with OVCAR-4 ovarian, in the assay on K-562 leukemia, in the assay on HCC-2998 colon and in the assay on MCF7 breast was above 100 µM in each case. The TGI with SK-MEL-28 melanoma, in the assay on SK-MEL-2 melanoma and in the assay on DU-145 prostate was above 100 µM each time.

`CC(C)OCc1cc(CN2CCN(c3cccc(Cl)c3)CC2)c(O)c2ncccc12`: the GI50 in the assay with SNB-75 CNS was 1.19 µM; in the assay on SF-539 CNS it was 0.471 µM; in the assay on BT-549 breast, 3.26 µM; with K-562 leukemia, 0.349 µM; in the assay on HCC-2998 colon, 0.92 µM; with MCF7 breast, 0.377 µM. The GI50 is 0.997 µM in the assay with SK-MEL-28 melanoma, 1.74 µM with SK-MEL-2 melanoma and 0.876 µM in the assay on DU-145 prostate. Besides, the TGI worked out at 14.4 µM with SNB-75 CNS; 3.48 µM in the assay on SF-539 CNS; 19.8 µM with BT-549 breast; 10.3 µM in the assay on K-562 leukemia; 11.3 µM with HCC-2998 colon; 11.5 µM with MCF7 breast. The results for the TGI in the assay with SK-MEL-28 melanoma, in the assay on SK-MEL-2 melanoma and with DU-145 prostate were 14.5 µM, 7.07 µM and 14.7 µM, respectively.
